Our source for the GI50 and TGI values is PubChem BioAssay (NCI).

For orientation: GI50 means the concentration giving 50% growth inhibition. What is called TGI is the concentration giving total growth inhibition.

Some test systems named below: MDA-N; DLD-1 colon; DMS 114 small cell lung; DMS 273 small cell lung; KM20L2 colon; LXFL 529 NSCLC; SNB-78 CNS; XF 498 CNS; RXF-631 renal.
What all share (assay): DTP human tumour cell line panel, 48 h

SMILES strings stand for the structures. Several values for one entry are separate records, joined by “and”; a condition that tells them apart may be missing. Equal entries are not always repeated.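 Following 48 hours of exposure in 96-well plates, responses at five concentrations were used to interpolate endpoints linearly. At the GI50, growth is halved. Definition used: TGI = concentration required for complete inhibition of growth.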 Bounds are passed on as bounds.

Regarding `CCCCCCCCCCCCCCCCCCOC[C@H](COP(=O)(O)O[C@H]1[C@H](O)[C@@H](O)[C@H](O)C[C@H]1O)OC`, in the test with MDA-N, the GI50 is 64.1 µM and 12 µM; the total growth inhibition concentration (TGI) was > 100 µM and 25.4 µM.

`O=C(Nc1cccc(O)c1)C(=O)C1C(=O)NC(=S)NC1=O`: the concentration for total growth inhibition (TGI) with DLD-1 colon, with DMS 114 small cell lung, in the test on DMS 273 small cell lung, in the test with KM20L2 colon, with LXFL 529 NSCLC and with SNB-78 CNS was above 100 µM in each case. In the test on XF 498 CNS, this compound displayed a TGI above 100 µM.

For `COCCOC(=O)C1=C(O)c2ccccc2S(=O)(=O)N1C`, the TGI in the test with MDA-N was above 100 µM.

On to `CCC1=CCN(c2cc(C)ccn2)OC1c1ccc(OC)cc1` (stereo unspecified), for which the concentration for total growth inhibition (TGI) in the test with DLD-1 colon is above 100 µM; with DMS 114 small cell lung, 91.6 µM; in the test with KM20L2 colon, above 100 µM; in the test on LXFL 529 NSCLC it was above 100 µM; with RXF-631 renal it was above 100 µM.

On to `Nc1ncnc2c1ncn2C1C=C(CO)C(O)C1O` (stereo unspecified), for which the TGI in the test on DLD-1 colon is above 100 µM; with DMS 114 small cell lung, 69.2 µM; in the test with DMS 273 small cell lung, 28.3 µM; in the test on KM20L2 colon it was above 100 µM; with LXFL 529 NSCLC, above 100 µM; with MDA-N, above 100 µM. Also, the TGI in the test on RXF-631 renal was 30 µM; in the test with SNB-78 CNS it was above 100 µM; with XF 498 CNS it was above 100 µM.

With `COc1ccc(C(C#N)NC23CC4CC(CC(C4)C2)C3)cc1` (stereo unspecified), in the test on MDA-N, the TGI was above 100 µM.

With `Cc1ccc(C)c(NC(=O)CC2Sc3ccccc3NC2=O)c1` (stereo unspecified), the GI50 in the test with DLD-1 colon is above 93.6 µM; with DMS 273 small cell lung, 23.1 µM and 97 µM; in the test on LXFL 529 NSCLC, 23 µM and 99 µM; in the test on MDA-N, 22.1 µM and > 65.6 µM; with XF 498 CNS, 13.7 µM and 29.1 µM. The total growth inhibition concentration (TGI) with DLD-1 colon, in the test with DMS 114 small cell lung, in the test with DMS 273 small cell lung, with KM20L2 colon, in the test on LXFL 529 NSCLC and in the test on MDA-N was above 100 µM in each case. Further, the TGI is 28.9 µM and 61.1 µM with SNB-78 CNS; 22.7 µM and > 100 µM with XF 498 CNS.

On to `O=C(Nc1ccc(C(F)(F)F)cc1[N+](=O)[O-])C(=O)C1NC(=S)NC1=O` (stereo unspecified), for which the total growth inhibition concentration (TGI) with DLD-1 colon, with DMS 114 small cell lung, in the test with DMS 273 small cell lung, in the test on KM20L2 colon, in the test on LXFL 529 NSCLC and in the test on RXF-631 renal was above 100 µM throughout. In the test on SNB-78 CNS, this compound yielded a TGI above 100 µM.

As to `NC(CCCC(N)P(=O)(O)O)P(=O)(O)O` (stereo unspecified), the TGI in the test with DLD-1 colon, in the test with DMS 114 small cell lung, in the test with DMS 273 small cell lung, in the test with LXFL 529 NSCLC, with RXF-631 renal and in the test on SNB-78 CNS was above 100 µM in each case.

With `C=C(C)C1CC2(C)C(C)CC(O)CC2C(OC(=O)C=C(C)C)C1O` (stereo unspecified), in the test with MDA-N, the TGI is above 100 µM.

In turn, `O=C(O)CCCc1ccc2ccc3ccccc3c2c1` had a TGI with MDA-N above 100 µM.

`O=C(O)CSCCc1ccccc1` had a TGI in the test with MDA-N above 100 µM.

On to `CC(=O)Oc1cc2c(cc1OC(C)=O)C1(C)CCC2(C)c2cc(OC(C)=O)c(OC(C)=O)cc21`, for which the TGI in the test on DLD-1 colon was above 100 µM; in the test on DMS 273 small cell lung it was above 100 µM; with KM20L2 colon, 79.5 µM; in the test with LXFL 529 NSCLC, 19.6 µM; in the test with RXF-631 renal it was above 100 µM; in the test with SNB-78 CNS, above 100 µM. For the same compound, in the test with XF 498 CNS, the TGI was determined as 29.1 µM.

For `CC(=O)c1ccc(NC(=O)/C(CC(=O)c2sc(-c3cccnc3)nc2C)=N/NC(N)=O)cc1`, the TGI in the test with DMS 114 small cell lung, with KM20L2 colon, in the test on LXFL 529 NSCLC, in the test with SNB-78 CNS and with XF 498 CNS was above 100 µM throughout.

For `CN(C)CCOc1ccc([N+](=O)[O-])c2cccnc12`, in the test with MDA-N, the TGI was above 100 µM.

On to `COc1ccc(NC(=O)CC/C(CC(=O)c2ccco2)=N/NC(=O)C(N)=O)cc1`, for which the TGI in the test on DLD-1 colon, in the test with DMS 114 small cell lung, with DMS 273 small cell lung, in the test with KM20L2 colon, in the test with LXFL 529 NSCLC and with XF 498 CNS was above 100 µM in each case.

`O=C1C(=O)c2ccccc2C(O)=C1C(C1=C(O)c2ccccc2C(=O)C1=O)c1ccc(Cl)cc1` yielded a TGI with MDA-N of 3.74 µM.

`O=S(=O)(C1=CC(S(=O)(=O)c2ccccc2)CN(Cc2ccccc2)C1c1cccc2ccccc12)c1ccccc1` (stereo unspecified): the TGI in the test with DLD-1 colon, in the test with DMS 114 small cell lung, in the test with DMS 273 small cell lung, in the test on KM20L2 colon, with RXF-631 renal and in the test with SNB-78 CNS was above 69 µM in each case.

`CC(=O)Oc1c(C)c(-c2ccccc2)c(C)c(-c2ccccc2)c1C(=S)c1ccccc1`: the TGI in the test with DLD-1 colon, with KM20L2 colon, in the test on LXFL 529 NSCLC, with RXF-631 renal and in the test with SNB-78 CNS was above 100 µM in each case.

For the compound `C=CC[P@]1(=O)O[C@H](c2ccccc2)[C@H](C)N1C`, the TGI in the test on DLD-1 colon, in the test with DMS 114 small cell lung, in the test with DMS 273 small cell lung, with LXFL 529 NSCLC and in the test with SNB-78 CNS was above 100 µM each time.

In the case of `COc1ccc(C=O)cc1O[Si](C)(C)C(C)(C)C`, the TGI in the test on DLD-1 colon, in the test with DMS 114 small cell lung, with DMS 273 small cell lung, in the test with KM20L2 colon, in the test with LXFL 529 NSCLC and with SNB-78 CNS was above 100 µM in each case.

As for `CC1(O)C(C)(O)C2(C)O[Te]3(OC12C)OC1(C)C(C)(O)C(C)(O)C1(C)O3` (stereo unspecified), the TGI in the test on DLD-1 colon is above 100 µM; with DMS 114 small cell lung, 54.4 µM; with DMS 273 small cell lung, 67.3 µM; in the test with LXFL 529 NSCLC, 31.4 µM; in the test on RXF-631 renal, above 100 µM; with SNB-78 CNS it was above 100 µM. For the same compound, the TGI in the test with XF 498 CNS was above 100 µM.

With `O=C(Nc1ccc(Cl)cc1)C1C(=O)C(=O)N(c2ccc(Cl)cc2)C1=O` (stereo unspecified), the TGI in the test with DLD-1 colon, in the test with DMS 114 small cell lung, in the test on DMS 273 small cell lung, with KM20L2 colon, with LXFL 529 NSCLC and with RXF-631 renal was above 100 µM in each case. Moreover, the TGI in the test on SNB-78 CNS and in the test on XF 498 CNS was above 100 µM each time.
